Test systems include AGK; AurA; CAMK1D; CDK5; CLK3; DGKA; eEF2K; EPHB2; GSK3A; GSK3B; IRAKI; JAK3 domain2; LCK; MAP2K7; MARK4; MAST3; MER; MST2; NEK9; p70S6K; PCTAIRE1; PI4KB; PIK3C2B; PIK3CD; PIP4K2A; PIP4K2C; RIPK3; RSK1 domain1; RSK2 domain1; TYK2 domain2; YANK3.
Holding throughout (format): cell-based
In the next experiment the test system is Mec1. Briefly: CellTiter-Glo cell viability assay. Conditions: Homo sapiens, 72 hours. (In general: In ATP-based viability assays light output follows the ATP content of the culture.)
A further experiment deals with OCI-Ly3. The experiment is described as follows: CellTiter-Glo cell viability assay. Conditions: Homo sapiens, OCI-Ly3, 72 h.
A further experiment relates to AMPKa1, AMPKa2. Briefly: KiNativ kinase profiling in A375 cells. Particulars: Lys2, SEQ ID NO 4, 1.0 μM.
In another experiment the test system is JNK1, JNK2, JNK3. The experiment is described as follows: KiNativ kinase profiling in A375 cells. Conditions: Lys2, SEQ ID NO 67, 1.0 μM.
Another experiment concerns MARK3, MARK4. The experiment is described as follows: KiNativ kinase profiling in A375 cells. Conditions: Lys1, SEQ ID NO 94, 1.0 μM.
A further experiment deals with PCTAIRE2, PCTAIRE3. Briefly: KiNativ kinase profiling in A375 cells. Particulars: Lys1, SEQ ID NO 135, 1.0 μM.
The next experiment has as its system TAO1, TAO3. The experiment is described as follows: KiNativ kinase profiling in A375 cells. Particulars: Lys2, SEQ ID NO 182, 1.0 μM.
Another experiment has as its system OCI-Ly7. The experiment is described as follows: CellTiter-Glo cell viability assay. Particulars: Homo sapiens, 72 hours.
A further experiment has as its system TMD8. The experiment is described as follows: CellTiter-Glo cell viability assay. Particulars: Homo sapiens, 72 hours.
Another experiment relates to BTK-pY223. Briefly: PhosFlow. Particulars: BCWM.1, Hck-wt and Hck-mu BCWM.1 cells; 0.5 μM and 0.1 μM. How it is done: PhosFlow was performed to detect levels of phosphorylation for BTK-pY223 (BD Biosciences) and Hck-pY410 (Abcam) in BCWM.1 cells, in BCWM cells that stably overexpress HCK (BCWM.1_HCK-wt) and in BCWM.1 cells that stably overexpress the T338M mutant of HCK (BCWM.1_HCK-mu). Cells were fixed with BD Phosflow Fix Buffer I (BD Biosciences) at 37° C. for 10 min, then washed twice with BD Phosflow Perm/Wash Buffer I (BD Biosciences). Cells were suspended in BD Phosflow Perm/Wash Buffer I at 10 million/ml and antibodies aliquoted to flow tubes with 100 μl cells. Cells were incubated at room temperature for 30 min in the dark. Cells were washed twice with BD Phosflow Perm/Wash Buffer I before performing flow analysis using a BD™ FACSCanto II flow cytometer.

One may read the EC50 as the concentration that produces a half-maximal response. With `CCN1CCN(Cc2ccc(NC(=O)c3ccc(C)c(Oc4cc(N)ncn4)c3)cc2C(F)(F)F)CC1` [(A-4), 3-((6-aminopyrimidin-4-yl)oxy)-N-(4-((4-ethylpiperazin-1-yl)methyl)-3-(trifluoromethyl)phenyl)-4-methylbenzamide], the half-maximal effective concentration (EC50) with Mec1 worked out at 14.3 µM; in the experiment on OCI-Ly3, 31.9 µM. Also, the “inhibition of kinase labeling” value in the experiment on AGK is −31.4%; with AMPKa1, AMPKa2, 16.3%; in the experiment with AurA, −16.0%; in the experiment on CAMK1D it was −6.0%; with CDK5 it was −27.3%; in the experiment with CLK3 it was −52.8%. The “inhibition of kinase labeling” value is −4.8% in the experiment with DGKA; −30.5% in the experiment on eEF2K; −12.8% with EPHB2; 36.0% in the experiment with GSK3A; 0.5% in the experiment with GSK3B; −3.5% with IRAKI. In addition, the “inhibition of kinase labeling” value is reported as 7.7% in the experiment with JAK3 domain2; 77.2% in the experiment with JNK1, JNK2, JNK3; 92.3% in the experiment on LCK; −38.2% with MAP2K7; −16.2% in the experiment on MARK3, MARK4; 2.9% in the experiment on MARK4. For the same compound, the “inhibition of kinase labeling” value with MAST3 is given as −8.1%; with MER, 49.8%; with MST2, −6.2%; in the experiment with NEK9, −1.2%; in the experiment on p70S6K it was −2.3%; in the experiment with PCTAIRE1, −3.5%. Further, the “inhibition of kinase labeling” value in the experiment on PCTAIRE2, PCTAIRE3 was 11.7%; in the experiment on PI4KB, −0.2%; in the experiment with PIK3C2B it was 24.0%; in the experiment on PIK3CD it was 2.2%; in the experiment with PIP4K2A it was −26.7%; in the experiment with PIP4K2C, 5.2%. The “inhibition of kinase labeling” value is 32.6% in the experiment on RIPK3; −20.9% in the experiment on RSK1 domain1; −3.3% in the experiment on RSK2 domain1; 76.5% in the experiment with TAO1, TAO3; −18.1% in the experiment with TYK2 domain2; 27.7% with YANK3.
`CCN1CCN(Cc2ccc(NC(=O)c3ccc(C)c(Oc4ccnc(Nc5cnn(C)c5)n4)c3)cc2C(F)(F)F)CC1` [(A-14), N-(4-((4-ethylpiperazin-1-yl)methyl)-3-(trifluoromethyl)phenyl)-4-methyl-3-((2-((1-methyl-1H-pyrazol-4-yl)amino)pyrimidin-4-yl)oxy)benzamide]: the values for the concentration giving a half-maximal response (EC50) in the experiment on OCI-Ly7 and in the experiment on TMD8 were 0.173 µM and 0.045 µM, respectively. The “BTK phosphorylation” value with BTK-pY223 is given as “inhibit”.
